Assay results as given in patent EP4803080A1, “METHOD FOR TREATING LEUKEMIA” (Shenzhen TargetRx Co., Ltd., priority 2023, dated 2025).
Like-named read-outs stand apart in the source and are kept apart here.

How the values were obtained:
Ba/F3 BCR-ABL1 T315M = experiment: Cell growth inhibition activity test, single agents and combinations (CellTiter-Glo, Chou-Talalay); assay type: cell-based, mouse; conditions: Mus musculus, BaF3, 72 h, single agent; T315M; 72 hours; read-out: IC50
Protocol: (§1) A series of cell lines expressing BCR-ABL1 single mutations and compound mutations were constructed based on the Ba/F3 mouse pro-B cell line.
(§2) This assay utilized the CellTiter-Glo (CTG) kit provided by Promega, which is a homogeneous method for cell viability detection, measuring the viability of cultured cells by quantifying ATP. Cells were seeded in 96-well plates and treated with different concentrations of test substances. […] At the end of the treatment, CTG reagent (CellTiter-Glo kit) was added according to the manufacturer's instructions to detect cell viability values. Plates were read on a microplate reader (Biotek cytation 3.0). IC50 values were calculated using GraphPad Prism 7.0 software.

[1] = test system: Ba/F3 BCR-ABL1 Y253H/T315I; experiment: as above; assay type: cell-based, mouse; conditions: BCR-ABL1 Y253H/T315I, read-out: IC50^I1
Protocol: as §1, §2

[2] = test system: accelerated phase (AP) chronic myeloid leukemia (CML); experiment: Phase I dose escalation and dose expansion clinical trial: efficacy in CML-AP subjects; assay type: in vivo, humans
Description: This study is a single-arm, open-label, dose-escalation and dose-expansion Phase I clinical trial.
The dose-escalation phase of this trial consists of about 8 dose groups, with oral administration under fasting conditions. Subjects in all dose groups will receive a single dose on Day 1 (D1), followed by pharmacokinetic (PK) and tolerability observations. […] After entering the multiple-dose period, subjects in the first dose group will initially receive twice-daily (BID) dosing (if PK data from the single-dose period are available, the dosing frequency during the multiple-dose period may be adjusted based on the PK data). The dosing frequency for subjects in subsequent dose groups after entering the multiple-dose period will be determined based on available PK and tolerability data. Throughout the trial, dosing frequency for all subjects may be adjusted based on continuously updated safety and PK data.
A continuous reassessment method (CRM) based on the principle of the escalation with overdose control (EWOC) design will be used to recommend the next specific dose for each dose escalation, thereby completing dose escalation and determining the maximum tolerated dose (MTD). If both the investigator and sponsor believe that higher dose groups may offer better efficacy and manageable safety, the EWOC-based CRM method may be used to explore higher doses. All enrolled subjects will receive long-term treatment with the test drug and undergo evaluations for safety, tolerability, and preliminary efficacy.
After obtaining certain research data from the dose-escalation phase, the investigator may comprehensively consider safety, efficacy, and other information to decide whether to enroll additional subjects at the MTD and/or lower dose levels to determine the recommended Phase II dose (RP2D). Two to four suitable dosing regimens will be selected for expansion in the target population (including subjects enrolled at the target dose levels during the escalation phase).
A total of 8 dose groups were established: 10 mg bid, 20 mg bid, 40 mg bid, 80 mg bid, 40 mg qd, 80 mg qd, 160 mg qd, and 240 mg qd.
The dose expansion phase was conducted in the following 3 cohorts: • Cohort 1: Subjects with chronic phase (CP) chronic myeloid leukemia (CML) who had previously received at least ≥2 different TKIs and were T315I-negative. A total of 3 dose groups were established: 40 mg qd, 80 mg qd, and 240 mg qd; • Cohort 2: Subjects with chronic phase (CP) chronic myeloid leukemia (CML) who have previously received ≥1 TKI and were T315I-positive. A total of 2 dose groups were established: 40 mg qd and 240 mg qd; • Cohort 3: Subjects with accelerated phase (AP) chronic myeloid leukemia (CML) who have previously received ≥1 TKI, regardless of T315I positivity. A total of 1 dose group was established: 240 mg qd.

[3] = CML-AP subjects previously treated with ponatinib, olverembatinib, asciminib, and/or HS-10382, as of June 2, 2024
[4] = CML-AP subjects, all doses, 44 evaluable, as of August 24, 2023
[5] = CML-AP subjects, 42 evaluable, as of June 2, 2024
[6] = CML-AP subjects, as of August 24, 2023
[7] = CML-AP subjects, as of June 2, 2024
[8] = CML-AP, failed or intolerant to third or above generations of TKI therapy
[9] = CML-AP, failed or intolerant to third or above generations of TKI therapy, 28 evaluable
[10] = CML-AP, failed or intolerant to third or above generations of TKI therapy, Kaplan-Meier method
[11] = CML-AP, 10 mg BID, 1 evaluable subject, as of August 24, 2023
[12] = CML-AP, 20 mg BID, 3 evaluable subjects, as of August 24, 2023
[13] = CML-AP, 40 mg BID, 4 evaluable subjects, as of August 24, 2023
[14] = CML-AP, 40 mg QD, 2 evaluable subjects, as of August 24, 2023
[15] = CML-AP, 40 mg/day Total, 5 evaluable subjects, as of August 24, 2023
[16] = CML-AP, 80 mg BID, 0 evaluable subjects, as of August 24, 2023
[17] = CML-AP, 80 mg QD, 4 evaluable subjects, as of August 24, 2023
[18] = CML-AP, 80 mg/day Total, 8 evaluable subjects, as of August 24, 2023
[19] = CML-AP, 160 mg QD, 3 evaluable subjects, as of August 24, 2023
[20] = CML-AP, 160 mg/day Total, 3 evaluable subjects, as of August 24, 2023
[21] = CML-AP, 240 mg QD, 27 evaluable subjects, as of August 24, 2023
[22] = CML-AP, Total, all dose groups, 44 evaluable subjects, as of August 24, 2023

O=C(Nc1ccc(OC(F)(F)Cl)cc1)c1cnc(N2CC[C@@H](F)C2)c(-c2cnccn2)c1 [Compound A, (R)-N-(4-(chlorodifluoromethoxy)phenyl)-6-(3-fluoropyrrolidin-1-yl)-5-(pyrazin-2-yl)nicotinamide]
IC50 (Ba/F3 BCR-ABL1 T315M): > 1000 nM
IC50 ([1]; IC50 of Compound A (I1) in Combination with olverembatinib (I2)): 65.3 nM
IC50 ([1]; IC50 of Compound A (I1) in Combination with ponatinib (I2)): 166 nM
IC50 ([1]; Mus musculus, BaF3, 72 h, Monotherapy (Table 12)): 12300 nM
18-month cumulative incidence rate of CCyR [2, 3]: 17%
18-month cumulative incidence rate of MCyR [2, 3]: 23%
CCyR [2, 4]: 18.2%
MCyR [2, 4]: 34.1%
MMR [2, 4]: 4.5%
MaHR ([2]; CML-AP subjects, all doses, 46 evaluable, as of August 24, 2023): 84.8%
CHR within 3 treatment cycles [2, 5]: 79%
MaHR within 3 treatment cycles [2, 5]: 83%
median time to MCyR [2, 6]: 2.76 (0.95, 5.52) months
median time to MMR [2, 6]: 5.54 (2.79, 8.28) months
18-month cumulative incidence of CCyR [2, 7]: 30%
18-month cumulative incidence of MCyR [2, 7]: 35%
18-month cumulative incidence of MMR [2, 7]: 14%
median EFS [2, 8]: 8.41 months
median PFS [2, 8]: not reached
median duration of MaHR response [2, 8]: not reached
median time to achieve CCyR [2, 8]: 5.59 (4.16, 6.92) months
median time to achieve MCyR [2, 8]: 2.69 (2.69, 5.55) months
CCyR [2, 9]: 14.3%
MCyR [2, 9]: 25.0%
MMR [2, 9]: 3.6%
MaHR [2, 9]: 78.6%
12-month EFS rate [2, 10]: 42.5%
12-month PFS rate [2, 10]: 79.9%
CCyR [2, 11]: 0 n (%)
MCyR [2, 11]: 0 n (%)
MMR [2, 11]: 0 n (%)
MaHR [2, 11]: 1 (100) n (%)
CCyR [2, 12]: 1 (33.3) n (%)
MCyR [2, 12]: 1 (33.3) n (%)
MMR [2, 12]: 0 n (%)
MaHR [2, 12]: 3 (100) n (%)
CCyR [2, 13]: 0 n (%)
MCyR [2, 13]: 1 (25.0) n (%)
MMR [2, 13]: 0 n (%)
MaHR [2, 13]: 3 (75.0) n (%)
CCyR [2, 14]: 0 n (%)
MCyR [2, 14]: 1 (50.0) n (%)
MMR [2, 14]: 0 n (%)
MaHR [2, 14]: 1 (50.0) n (%)
CCyR [2, 15]: 1 (20.0) n (%)
MCyR [2, 15]: 2 (40.0) n (%)
MMR [2, 15]: 0 n (%)
MaHR [2, 15]: 4 (80.0) n (%)
CCyR [2, 16]: 0 n (%)
MCyR [2, 16]: 0 n (%)
MMR [2, 16]: 0 n (%)
MaHR [2, 16]: 0 n (%)
CCyR [2, 17]: 0 n (%)
MCyR [2, 17]: 0 n (%)
MMR [2, 17]: 0 n (%)
MaHR [2, 17]: 3 (75.0) n (%)
CCyR [2, 18]: 0 n (%)
MCyR [2, 18]: 1 (12.5) n (%)
MMR [2, 18]: 0 n (%)
MaHR [2, 18]: 6 (75.0) n (%)
CCyR [2, 19]: 0 n (%)
MCyR [2, 19]: 1 (33.3) n (%)
MMR [2, 19]: 0 n (%)
MaHR [2, 19]: 3 (100) n (%)
CCyR [2, 20]: 0 n (%)
MCyR [2, 20]: 1 (33.3) n (%)
MMR [2, 20]: 0 n (%)
MaHR [2, 20]: 3 (100) n (%)
CCyR [2, 21]: 7 (25.9) n (%)
MCyR [2, 21]: 11 (40.7) n (%)
MMR [2, 21]: 2 (7.4) n (%)
MaHR ([2]; CML-AP, 240 mg QD, 29 evaluable subjects, as of August 24, 2023): 25 (86.2) n (%)
CCyR [2, 22]: 8 (18.2) n (%)
MCyR [2, 22]: 15 (34.1) n (%)
MMR [2, 22]: 2 (4.5) n (%)
MaHR ([2]; CML-AP, Total, all dose groups, 46 evaluable subjects, as of August 24, 2023): 39 (84.8) n (%)
